Source: US20030229067A1, “Pyrrolopyrimidine A2b selective antagonist compounds, their synthesis and use” (priority 2001, published 2003)

In the case of CC(=O)NCCNc1nc(-c2ccccc2)nc2[nH]c(C(=O)N3CC=C(c4ccc(Cl)cc4)CC3)cc12 [26.13, N-(2-{6-[4-(4-Chlorophenyl)-3,6-dihydro-2H-pyridine-17carbonyl]-2-phenyl-7H-pyrrolo[2,3-d]pyrimidin-4-ylamino}-ethyl)-acetamide], the melting point is reported as 172 to 175 °C.
CC(=O)NCCNc1nc(-c2ccccc2)nc2[nH]c(C(=O)N3C[C@@H](C)NC[C@@H]3C)cc12 (relative stereo) [26.31, N-{2-[6-(trans-2,5-Dimethylpiperazine-1-carbonyl)-2-phenyl-7H-pyrrolo[2,3-d]pyrimidin-4-ylamino]-ethyl}-acetamide] showed a melting point of 120 to 125 °C.
With CC(=O)NCCNc1nc(-c2ccccc2)nc2[nH]c(C(=O)NC3CC4CCC3C4)cc12 (stereo not drawn) [26.17] the melting point was 280 to 285 °C (dec.).
For CC(=O)NCCNc1nc(-c2ccccc2)nc2[nH]c(C(=O)N3CCC(C(O)c4ccc(F)cc4)CC3)cc12 (stereo not drawn) [26.29], the melting point was 135 to 145 °C (dec.).
With CC(=O)NCCNc1nc(-c2ccccc2)nc2[nH]c(C(=O)N3CCOCC3)cc12 [26.1, N-{2-[6-(Morpholine-4-carbonyl)-2-phenyl-7H-pyrrolo[2,3-d]pyrimidin-4-ylamino]-ethyl}-acetamide] the melting point was 250 °C.
For CC(=O)NCCNc1nc(-c2ccccc2)nc2[nH]c(C(=O)N3CCN(CCCN4CCOCC4)CC3)cc12 [26.12, N-(2-{6-[4-(3-Morpholin-4-ylpropyl)-piperazine-1-carbonyl]-2-phenyl-7H-pyrrolo[2,3-d]pyrimidin-4-ylamino}-ethyl)-acetamide], the melting point was 225 to 230 °C (dec.).
In the case of CC(=O)NCCNc1nc(-c2ccccc2)nc2[nH]c(/C=N/OCc3ccccc3)cc12 [22.1, N-{2-[6-(Benzyloxyiminomethyl)-2-phenyl-7H-pyrrolo[2,3-d]pyrimidin-4-ylamino]-ethyl}-acetamide], the melting point is reported as 83 to 87 °C (dec.).
CC(=O)NCCNc1nc(-c2ccccc2)nc2[nH]c(C(=O)N3CCC(Cc4ccccc4)CC3)cc12 [26.54, N-{2-[6-(4-Benzylpiperidine-1-carbonyl)-2-phenyl-7H-pyrrolo[2,3-d]pyrimidin-4-ylamino]-ethyl}-acetamide] showed a melting point of 260 to 261 °C.
Molecule CC(=O)NCCNc1nc(-c2ccccc2)nc2[nH]c(C(=O)Nc3cccc(Oc4ccccc4)c3)cc12 [26.20, 4-(2-Acetylaminoethylamino)-2-phenyl-7H-pyrrolo[2,3-d]pyrimidine-6-carboxylic acid (3-phenoxyphenyl)-amide] has a melting point of 140 to 142 °C.
With CC(=O)NCCNc1nc(-c2ccccc2)nc2[nH]c(C(=O)N3CCN(c4ccccn4)CC3)cc12 [26.35, N-{2-[2-Phenyl-6-(4-pyridin-2-yl-piperazine-1-carbonyl)-7H-pyrrolo[2,3-d]pyrimidin-4-ylamino]-ethyl}-acetamide] the melting point was 223 to 226 °C (dec.).
For CC(=O)NCCNc1nc(-c2ccccc2)nc2[nH]c(C(=O)N3CCN(CCc4ccccc4)CC3)cc12 [26.11, N-{2-[6-(4-Phenethylpiperazine-1-carbonyl)-2-phenyl-7H-pyrrolo[2,3-d]pyrimidin-4-ylamino]-ethyl}-acetamide], the melting point was 226 to 228 °C.
Work on CC(=O)NCCNc1nc(-c2ccccc2)nc2[nH]c(C(=O)N3C[C@@H](C)N(Cc4ccccc4)[C@@H](C)C3)cc12 [26.32] yielded a melting point of 196 to 198 °C.
Work on COC1(c2ccc(F)cc2)CCN(C(=O)c2cc3c(NCCNC(C)=O)nc(-c4ccccc4)nc3[nH]2)CC1 [26.48, N-(2-{6-[4-(4-Fluorophenyl)4-methoxypiperidine-1-carbonyl]-2-phenyl-7H-pyrrolo[2,3-d]pyrimidin-4-ylamino}-ethyl)-acetamide] yielded a melting point of 134 to 137 °C.
Work on COC1(c2ccccc2)CCN(C(=O)c2cc3c(NCCNC(C)=O)nc(-c4ccccc4)nc3[nH]2)CC1 [26.27, N-{2-[6-(4-Methoxy-4-phenylpiperidine-1-carbonyl)-2-phenyl-7H-pyrrolo[2,3-d]pyrimidin-4-ylamino]-ethyl}-acetamide] yielded a melting point of 135 to 138 °C.
CC(=O)NCCNc1nc(-c2ccccc2)nc2[nH]c(C(=O)N3CCCC(C)(c4ccccc4)C3)cc12 (stereo not drawn) [26.36, N-{2-[6-(3-Methyl-3-phenylpiperidine-1-carbonyl)-2-phenyl-7H-pyrrolo[2,3-d]pyrimidin-4-ylamino]-ethyl}-acetamide] gave a melting point of 140 to 145 °C.
In the case of CC(=O)NCCNc1nc(-c2ccccc2)nc2[nH]c(C(=O)N3CCC4(CC3)CCN(Cc3ccccc3)C4=O)cc12 [26.49, N-{2-[6-(2-Benzyl-1-oxo-2,8-diazaspiro[4.5]decane-8-carbonyl)-2-pheny1-7H-pyrrolo[2,3-d]pyrimidin-4-ylamino]-ethyl}-acetamide], the melting point is reported as 140 °C (dec.).
For CC(=O)NCCNc1nc(-c2ccccc2)nc2[nH]c(C(=O)N3CCC(O)(C(C)C)CC3)cc12 [26.4, N-{2-[6-(4-Hydroxy4-isopropylpiperidine-1-carbonyl)-2-phenyl-7H-pyrrolo[2,3-d]pyrimidin-4-ylamino]-ethyl}-acetamide], the melting point was 140 to 145 °C (dec.).
With NC(=O)CNc1nc(-c2ccccc2)nc2[nH]c(C(=O)N3CCC(O)(c4ccc(Cl)cc4)CC3)cc12 [26.9, 2-{6-[4-(4-Chlorophenyl)-4-hydroxypiperidine-1-carbonyl]-2-phenyl-7H-pyrrolo[2,3-d]pyrimidin-4-ylamino}-acetamide] the melting point was 200 to 205 °C (dec.).
With COC(=O)c1cccc(OCc2cc3c(NCCNC(C)=O)nc(-c4ccccc4)nc3[nH]2)c1 [9.19, 3-[4-(2-Acetylaminoethylamino)-2-phenyl-7H-pyrrolo[2,3-d]pyrimidin-6-ylmethoxy]-benzoic acid methyl ester] the melting point was 80 to 85 °C (dec.).
For CC(=O)NCCNc1nc(-c2ccccc2)nc2[nH]c(C(=O)N3CCN(Cc4ccccc4)CC3)cc12 [26.14, N-{2-[6-(4-Benzylpiperazine-1-carbonyl)-2-phenyl-7H-pyrrolo[2,3-d]pyrimidin-4-ylamino]-ethyl}-acetamide], the melting point was 235 to 240 °C (dec.).
For COC1(c2ccccc2Cl)CCN(C(=O)c2cc3c(NCCNC(=O)c4cc5c(NCCNC(C)=O)nc(-c6ccccc6)nc5[nH]4)nc(-c4ccccc4)nc3[nH]2)CC1 [26.51, 4-(2-Acetylaminoethylamino)-2-phenyl-7H-pyrrolo[2,3-d]pyrimidine-6-carboxylic acid (2-{6-[4-(2-chlorophenyl)-4-methoxypiperidine-1-carbonyl]-2-phenyl-7H-pyrrolo[2,3-d]pyrimidin-4-ylamino}-ethyl)-amide], the melting point was 180 to 185 °C (dec.).
CC(=O)NCCNc1nc(-c2ccccc2)nc2[nH]c(C(=O)N3CCN(c4ccc(F)cc4)CC3)cc12 [26.38, N-(2-{6-[4-(4-Fluorophenyl)-piperazine-1-carbonyl]-2-phenyl-7H-pyrrolo[2,3-d]pyrimidin-4-ylamino}-ethyl)-acetamide] showed a melting point of 234 °C.
In the case of CC(=O)NCCNc1nc(-c2ccccc2)nc2[nH]c(C(=O)N3CCC(O)(c4ccc(F)cc4)CC3)cc12 [26.18, N-(2-{6-[4-(4-Fluorophenyl)4-hydroxypiperidine-1-carbonyl]-2-phenyl-7H-pyrrolo[2,3-d]pyrimidin-4-ylamino}-ethyl)-acetamide], the melting point is reported as 150 to 153 °C.
Molecule CC(=O)NCCNc1nc(-c2ccccc2)nc2[nH]c(C(=O)N3CCN(c4ccc(C(F)(F)F)cn4)CC3)cc12 [26.39, N-(2-{2-Phenyl-6-[4-(5-trifluoromethylpyridin-2-yl)-piperazine-1-carbonyl]-7H-pyrrolo[2,3-d]pyrimidin-4-ylamino}-ethyl)-acetamide] has a melting point of 270 to 273 °C.
For CC(=O)NCCNc1nc(-c2ccccc2)nc2[nH]c(C(=O)N3CCC(O)(c4cccc(C(F)(F)F)c4)CC3)cc12 [26.10], the melting point was 145 to 150 °C.
In the case of CC(=O)NCCNc1nc(-c2ccccc2)nc2[nH]c(C(=O)N3C[C@@H](C)N(CCc4ccccc4)[C@@H](C)C3)cc12 [26.33, N-{2-[6-(cis-3,5-Dimethyl-4-phenethylpiperazine-1-carbonyl)-2-phenyl-7H-pyrrolo[2,3-d]pyrimidin-4-ylamino]-ethyl}-acetamide], the melting point is reported as 110 to 115 °C (dec.).
For CC(=O)NCCNc1nc(-c2ccccc2)nc2[nH]c(C(=O)N3CCCC(c4ccccc4)(c4ccccc4)C3)cc12 [26.26, N-{2-[6-(3,3-Diphenylpiperidine-1-carbonyl)-2-phenyl-7H-pyrrolo[2,3-d]pyrimidin-4-ylamino]-ethyl}-acetamide], the melting point was 156 to 159 °C (dec.).
CC(=O)NCCNc1nc(-c2ccccc2)nc2[nH]c(C(=O)N3C[C@@H](C)N[C@@H](C)C3)cc12 [26.22, N-{2-[6-(cis-3,5-Dimethylpiperazine-1-carbonyl)-2-phenyl-7H-pyrrolo[2,3-d]pyrimidin-4-ylamino]-ethyl}-acetamide] gave a melting point of 138 to 140 °C.
Work on CC(=O)NCCNc1nc(-c2ccccc2)nc2[nH]c(C(=O)N3CCN(CC#Cc4ccccc4)CC3)cc12 [26.21, N-(2-{2-Phenyl-6-[4-(3-phenylprop-2-ynyl)-piperazine-1-carbonyl]-7H-pyrrolo[2,3-d]pyrimidin-4-ylamino}-ethyl)-acetamide] yielded a melting point of 213 to 215 °C.
In the case of CC(=O)NCCNc1nc(-c2ccccc2)nc2[nH]c(C(=O)N3CCN(CCOc4ccc(Cl)cc4)CC3)cc12 [26.16, N-[2-(6-{4-[2-(4-Chlorophenoxy)-ethyl]-piperazine-1-carbonyl}-2-phenyl-7H-pyrrolo[2,3-d]pyrimidin-4-ylamino)-ethyl]-acetamide], the melting point is reported as 227 to 228 °C.
For CC(=O)NCCNc1nc(-c2ccccc2)nc2[nH]c(C(=O)Nc3ccc(Oc4ccccc4)cc3)cc12 [26.2, 4-(2-Acetylaminoethylamino)-2-phenyl-7H-pyrrolo[2,3-d]pyrimidine-6-carboxylic acid (4-phenoxyphenyl)-amide], the melting point was 250 to 257 °C (dec.).
CC(=O)NCCNc1nc(-c2ccccc2)nc2[nH]c(C(=O)N3CCN(c4ncccc4C(F)(F)F)CC3)cc12 [26.37, N-(2-{2-Phenyl-6-[4-(3-trifluoromethylpyridin-2-yl)-piperazine-1-carbonyl]-7H-pyrrolo[2,3-d]pyrimidin-4-ylamino}-ethyl)-acetamide] showed a melting point of 225 to 228 °C.
For CC(=O)NCCNc1nc(-c2ccccc2)nc2[nH]c(C(=O)N3CCC(C#N)(c4ccccc4)CC3)cc12 [26.19, N-{2-[6-(4-Cyano-4-phenylpiperidine-1-carbonyl)-2-phenyl-7H-pyrrolo[2,3-d]pyrimidin-4-ylamino]-ethyl}-acetamide], the melting point was 150 to 155 °C (dec.).
